Source: patent US11014908B2, “Chemical compounds” (Pfizer Inc., priority 2018, dated 2021)

Tests used:
[1] = Single dose study in sickle Townes mice: exposure in whole blood; assay type: in vivo; conditions: male, Townes (sickle cell disease model), mouse, SCD mice, n=3
Method: In Vivo Studies Mouse Model
The effect of the compounds of the invention was evaluated in-male sickle Townes mice in a single dose study. Compounds of the invention were administered in amounts set out in Tables 7, 8 and 9 that follow by oral gavage. Control mice received vehicle. Blood (50 μL) was drawn at 0.5 h, 1 h, 4 h, 7 h, 10 h, and 24 h. To measure exposure in whole blood, 20 μL sample was used. Blood drawn at 0.5 h was also evaluated for cell sickling.

[2] = molecular target: T1, purified sickle cell hemoglobin (HbS) (Homo sapiens, UniProt P68871+P69905, E7V); assay: Binding affinity to purified HbS by Surface Plasmon Resonance (SPR); conditions: crosslinked biotinylated HbS, 1:1 binding model
T1 construct: HbS was obtained from the blood of homozygous S/S patients; from tissue; host or cells: red blood cells of homozygous S/S patients
How it was run: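 Patient-derived HbS, purified and crosslinked between beta subunits (Lys82-Lys82), biotinylated and captured on streptavidin sensor at 4000–5000 RU. Running buffer 100 mM potassium phosphate pH 7.5, 1 mM EDTA, 0.1 mg/mL BSA, 1% DMSO; 2 min association, ≥5 min dissociation, ≥4 concentrations; Kd from 1:1 model fit.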

HbS = molecular target: T2, HbS (Homo sapiens, UniProt P68871+P69905, E7V); assay: HbS polymerization assay (delay time); assay type: biochemical; conditions: 0.15 mM HbS, n=3, vs DMSO; for Increase in DT for 25% HbS Occ: 0.075 mM compound
T2 construct: HbS was obtained from the blood of homozygous S/S patients; from tissue; host or cells: red blood cells of homozygous S/S patients
From the text: This assay is used to determine the degree of inhibition of polymerization of HbS by compounds of the invention at varying degrees of HbS occupancy. The method used for the assay was adapted from that described in He and Russell (He, Z. and J. E. Russell, “A high-Throughput Microplate Method for Assessing Aggregation of Deoxygenated Hemoglobin S Heterotetramers in Vitro”, Anal Biochem 306(2): 349-352 (2002)).
Purified HbS was exchanged into 1.25 M potassium phosphate, pH=7.4 and concentrated to 1.1 mM. The hemoglobin concentration was fixed at 0.15 mM, and the HbS was diluted to the appropriate concentration using 1.25 M potassium phosphate, pH=7.4. The compound of the invention was added to 0.15 mM HbS in the following concentrations: […], 0.075 mM (25%) and 0.15 mM (50%). As these compounds are ditopic binders, the concentration was doubled to calculate the % coverage, ie. 0.15*0.5=0.075*2=0.15. DMSO concentrations were matched for all compound concentrations, as well as no-compound control, and HbA. Following incubation, 33.5 μL of HbS solution was added to each well of a Costar 96-well half area plate. To induce deoxygenation, 16.5 μL of 1 M sodium dithionite, prepared in 1.25 M potassium phosphate, was added to each well for a final assay concentration of 330 mM, and mixed thoroughly. Fifty μL of mineral oil was overlaid over the solution in each well to prevent reoxygenation, and the plate was placed at 4° C. for five minutes. Following cold incubation, the plates were placed in a spectrophotometer that had been equilibrated at 37° C., to initiate the polymerization process (temperature jump). The reaction was monitored at 700 nm for 40 minutes, with data points collected every 30 seconds. Four wells were used for each condition, and the data averaged at every point for analysis. Data was analyzed using Graph Pad Prism, and the data was fit to a Boltzman sigmoidal equation, in which V50 (t1/2) was taken as the delay time. The percent change was calculated using the DMSO as the initial delay time. Error in percent change was compounded using the V50 errors generated when fit to the Boltzman sigmoidal equation.
Delay in HbS polymerization, as measured by increasing delay time as a function of % HbS occupancy (% HbS Occ), is reported in Table 5 below as the increase in delay time (DT) for 10%, 25% and 50% HbS occupancy (n=3).

| Compound | concentration at 0.5 h ([1]; single dose 10 mg/kg oral gavage) [µM] | concentration at 0.5 h ([1]; single dose 40 mg/kg oral gavage) [µM] | concentration at 0.5 h ([1]; single dose 220 mg/kg oral gavage) [µM] | concentration at 0.5 h ([1]; single dose 490 mg/kg oral gavage) [µM] | Kd [2] [µM] | Increase in DT for 10% HbS Occ (HbS; 0.03 mM compound) [%] | Increase in DT for 25% HbS Occ (HbS) [%] | Increase in DT for 50% HbS Occ (HbS; 0.15 mM compound) [%] | concentration at 0.5 h ([1]; single dose 30 mg/kg oral gavage) [µM] | concentration at 0.5 h ([1]; single dose 100 mg/kg oral gavage) [µM] | concentration at 0.5 h ([1]; single dose 300 mg/kg oral gavage) [µM] | concentration at 0.5 h ([1]; single dose 900 mg/kg oral gavage) [µM] |
| --- | --- | --- | --- | --- | --- | --- | --- | --- | --- | --- | --- | --- |
| C[C@H](Oc1cc2cc(F)ccc2nc1N)c1nc(O)ccc1-n1cccn1 [Example 58, 6-{(1S)-1-[(2-amino-6-fluoroquinolin-3-yl)oxy]ethyl}-5-(1H-pyrazol-1-yl)pyridin-2-ol] | 35.8 | 285 | 1450 | 2870 | 0.034 | 18 ± 5 | 70 ± 8 | 74 ± 21 |  |  |  |  |
| C[C@H](Oc1cc2cc(F)cc(F)c2nc1N)c1cc(C(=O)O)ccc1-n1cccn1 [Example 21, 3-{(1S)-1-[(2-amino-6,8-difluoroquinolin-3-yl)oxy]ethyl}-4-(1H-pyrazol-1-yl)benzoic Acid] |  |  |  |  | 0.037 |  | 64 ± 6 |  | 14.7 | 303 | 1140 | 1500 |
